For this experiment, the target named is T1, HCV-NS5b (Hepatitis C virus genotype 1b, UniProt Q9WMX2).
T1 construct: (His)6 (C); made in house; host or cells: XL-1 cells (E. coli), IPTG-inducible plasmid, nickel-NTA purification
The experiment can be described thus: HCV-NS5b enzyme assay (incorporation of radiolabeled UTP). The settings on record: for inhibition at 33 µM: enzyme inhibition at compound concentration of 33 uM; for inhibition at 100 µM: read-out: % inh@100, enzyme inhibition at compound concentration of 100 uM. The class given is biochemical. The method, boiled down: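 His6-tagged NS5b lacking the C-terminal 21 residues, expressed in XL-1 and Ni-NTA purified. Reaction at pH 7.5 with 5 mM MgCl2, 10 μM each NTP including [3H]-UTP and biotinylated HCV heteropolymeric template, 2 h at 37° C; SPA read-out; % inhibition at 100 and 33 uM versus no-compound control, background subtracted.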

As for `O=C(O)COc1ccc(-c2ccc(Cl)cc2)c(-c2ccc3cc(-c4nc5cc(C(=O)O)ccc5n4C4CCCCC4)ccc3n2)c1` [Compound 393, 2-[2-(4-Carboxymethoxy-4′-chloro-biphen-2-yl)-quinolin-6-yl]-1-cyclohexyl-1H-benzoimidazole-5-carboxylic acid], the inhibition at 33 µM stood at 97.6% and the inhibition at 100 µM came out at 96.9%.
In the same order, the values of `COc1cc(Br)c2oc(-c3ccc4cc(-c5nc6cc(C(=O)O)ccc6n5C5CCCCC5)ccc4n3)cc2c1` [Compound 394, 2-[2-(7-bromo-5-methoxy-benzofuran-2-yl)-quinolin-6-yl]-1-cyclohexyl-1H-benzoimidazole-5-carboxylic acid] are 98.9% and 100%.
In the same order, the values of `O=C(O)c1ccc2c(c1)nc(-c1ccc3nc(-c4ccccc4-c4ccccc4)ccc3c1)n2C1CCCCC1` [Compound 395, 2-(2-biphen-2-yl-quinolin-6-yl)-1-cyclohexyl-1H-benzoimidazole-5-carboxylic acid] are 100% and 101%.
Taken in the same sequence, the figures for `Cc1onc(-c2ccc(Cl)cc2)c1-c1ccc2cc(-c3nc4cc(C(=O)O)ccc4n3C3CCCCC3)ccc2n1` [Compound 396, 2-{2-[3-(4-chloro-phenyl)-5-methyl-isoxazol-4-yl]-quinolin-6-yl}-1-cyclohexyl-1H-benzoimidazole-5-carboxylic acid] were 100% and 100%.
As to `Cc1cc(-c2nc3cc(C(=O)O)ccc3n2C2CCCCC2)cc2ccc(-c3ccccc3)nc12` [Compound 397, 1-Cyclohexyl-2-(8-methyl-2-phenyl-quinolin-6-yl)-1H-benzoimidazole-5-carboxylic acid], the inhibition at 33 µM turned out to be 95.6% and the inhibition at 100 µM turned out to be 99.3%.
In the same order, the values of `O=C(O)c1ccc2c(c1)nc(-c1ccc3nc(-c4ccccc4)cc(NCCCCO)c3c1)n2C1CCCCC1` [Compound 398, 1-cyclohexyl-2-[4-(4-hydroxy-butylamino)-2-phenyl-quinolin-6-yl]-1H-benzoimidazole-5-carboxylic acid] are 59.6% and 92%.
In the same order, the values of `CC(C)(C)OC(=O)NCCNc1cc(-c2ccccc2)nc2ccc(-c3nc4cc(C(=O)O)ccc4n3C3CCCCC3)cc12` [Compound 399, 2-[4-(2-tert-butoxycarbonylamino-ethylamino)-2-phenyl-quinolin-6-yl]-1-cyclohexyl-1H-benzoimidazole-5-carboxylic acid] are 95.6% and 102%.
In the same order, the values of `COc1ccc(-c2ccc(N(C)C)cc2)c(-c2ccc3cc(-c4nc5cc(C(=O)O)ccc5n4C4CCCCC4)ccc3n2)c1` [Compound 401, 1-cyclohexyl-2-[2-(4′-dimethylamino-4-methoxy-biphen-2-yl)-quinolin-6-yl]-1H-benzoimidazole-5-carboxylic acid] are 100% and 101%.
`COc1ccc(-c2ccc(Cl)c(Cl)c2)c(-c2ccc3cc(-c4nc5cc(C(=O)O)ccc5n4C4CCCCC4)ccc3n2)c1` [Compound 403, 1-cyclohexyl-2-[2-(3′,4′-dichloro-4-methoxy-biphen-2-yl)-quinolin-6-yl]-1H-benzoimidazole-5-carboxylic acid]: the inhibition at 33 µM is 99.4% and the inhibition at 100 µM turned out to be 99.9%.
In the same order, the values of `CCOc1ccc([N+](=O)[O-])cc1-c1ccc2cc(-c3nc4cc(C(=O)O)ccc4n3C3CCCCC3)ccc2n1` [Compound 404, 1-cyclohexyl-2-[2-(2-ethoxy-5-nitro-phenyl)-quinolin-6-yl]-1H-benzoimidazole-5-carboxylic acid] are 102% and 101%.
For the compound `O=C(O)c1ccc2c(c1)nc(-c1ccc3ccc(-c4ccccc4)nc3c1)n2C1CCCCC1` [Compound 405, 1-Cyclohexyl-2-(2-phenyl-quinolin-7-yl)-1H-benzoimidazole-5-carboxylic acid], the inhibition at 33 µM worked out at 90.5% and the inhibition at 100 µM stood at 98.9%.
In the same order, the values of `O=C(O)c1ccc2c(c1)nc(-c1ccc3nc(-c4ccccc4)c(-c4ccccc4)nc3c1)n2C1CCCCC1` [Compound 406, 1-Cyclohexyl-2-(2,3-diphenylquinoxalin-6-yl)-1H-benzimidazole-5-carboxylic acid] are 97.3% and 98.1%.
In the same order, the values of `O=C(O)c1ccc2c(c1)nc(-c1cc3ccc(-c4ccccc4-c4ccc(Cl)cc4)nc3cc1F)n2C1CCCCC1` [Compound 408, 2-[2-(4′-Chloro-biphen-2-yl)-7-fluoro-quinolin-6-yl]-1-cyclohexyl-1H-benzoimidazole-5-carboxylic acid] are 99.3% and 98.9%.
In the same order, the values of `O=C(O)c1ccc2c(c1)nc(-c1ccc3nc(-c4ccc(F)cc4)c(-c4ccc(F)cc4)nc3c1)n2C1CCCCC1` [Compound 409, 2-[2,3-Bis-(4-fluorophenyl)quinoxalin-6-yl]-1-cyclohexyl-1H-benzimidazole-5-carboxylic acid] are 97.9% and 99.9%.
For the compound `O=C(c1ccc2c(c1)nc(-c1cc3ccc(-c4ccccc4-c4ccccc4)nc3cc1F)n2C1CCCCC1)N1CCC(O)CC1` [Compound 410], the inhibition at 33 µM was found to be 84.3% and the inhibition at 100 µM amounted to 88.6%.
In the same order, the values of `O=C(O)c1ccc2c(c1)nc(-c1ccc3nc(-c4cc5cccc(O)c5o4)ccc3c1)n2C1CCCCC1` [Compound 411, 1-cyclohexyl-2-[2-(7-hydroxy-benzofuran-2-yl)-quinolin-6-yl]-1H-benzoimidazole-5-carboxylic acid] are 78.1% and 91.5%.
In the case of `O=C(O)c1ccc2c(c1)nc(-c1ccc3nc(-c4ccc5c(c4)OCO5)ccc3c1)n2C1CCCCC1` [Compound 412, 2-(2-benzo[1,3]dioxol-5-yl-quinolin-6-yl)-1-cyclohexyl-1H-benzoimidazole-5-carboxylic acid], the inhibition at 33 µM was 98.4% and the inhibition at 100 µM was 100%.
On to `O=C(O)c1ccc2c(c1)nc(-c1ccc3nc(-c4cc5ccccc5o4)ccc3c1)n2C1CCCCC1` [Compound 413, 2-(2-benzofuran-2-yl-quinolin-6-yl)-1-cyclohexyl-1H-benzoimidazole-5-carboxylic acid], for which the inhibition at 33 µM was found to be 95.5% and the inhibition at 100 µM was 100%.
With `O=C(O)c1ccc2c(c1)nc(-c1ccc3nc(-c4cccc(OCCCN5CCCC5)c4)ccc3c1)n2C1CCCCC1` [Compound 414, 1-Cyclohexyl-2-{2-[3-(3-pyrrolidin-1-yl-propoxy)-phenyl]-quinolin-6-yl}-1H-benzoimidazole-5-carboxylic acid], the inhibition at 33 µM was determined as 93.4% and the inhibition at 100 µM is 96.8%.
For `O=C(O)c1ccc(-c2ccc(Cl)cc2)c(-c2ccc3cc(-c4nc5cc(C(=O)O)ccc5n4C4CCCCC4)ccc3n2)c1` [Compound 415, 2-[2-(4-Carboxy-4′-chloro-biphen-2-yl)-quinolin-6-yl]-1-cyclohexyl-1H-benzoimidazole-5-carboxylic acid], the inhibition at 33 µM was 101% and the inhibition at 100 µM is 102%.
In the same order, the values of `Cc1nc(-c2ccc(Cl)cc2)sc1-c1ccc2cc(-c3nc4cc(C(=O)O)ccc4n3C3CCCCC3)ccc2n1` [Compound 416, 2-{2-[2-(4-chloro-phenyl)-4-methyl-thiazol-5-yl]-quinolin-6-yl}-1-cyclohexyl-1H-benzoimidazole-5-carboxylic acid] are 101% and 103%.
Taken in the same sequence, the figures for `Cc1cc(-c2nc3cc(C(=O)O)ccc3n2C2CCCCC2)cc2ccc(-c3ccccc3-c3ccc(Cl)cc3)nc12` [Compound 417, 2-[2-(4′-Chloro-biphen-2-yl)-8-methyl-quinolin-6-yl]-1-cyclohexyl-1H-benzoimidazole-5-carboxylic acid] were 97.8% and 98%.
Regarding `Cc1cc(-c2ccc3cc(-c4nc5cc(C(=O)O)ccc5n4C4CCCCC4)ccc3n2)c(O)c([N+](=O)[O-])c1` [Compound 418, 1-cyclohexyl-2-[2-(2-hydroxy-5-methyl-3-nitro-phenyl)-quinolin-6-yl]-1H-benzoimidazole-5-carboxylic acid], the inhibition at 33 µM is 104% and the inhibition at 100 µM is 103%.
Taken in the same sequence, the figures for `COc1ccc(-c2ccc(C(=O)N3CCCC3)cc2-c2ccc3cc(-c4nc5cc(C(=O)O)ccc5n4C4CCCCC4)ccc3n2)cc1OC` [Compound 419, 1-Cyclohexyl-2-{2-[3′,4′-dimethoxy-4-(pyrrolidine-1-carbonyl)biphen-2-yl]quinolin-6-yl}-1H-benzimidazole-5-carboxylic acid] were 101% and 101%.
For `COc1ccc(-c2cccc([N+](=O)[O-])c2)c(-c2ccc3cc(-c4nc5cc(C(=O)O)ccc5n4C4CCCCC4)ccc3n2)c1` [Compound 420, 1-cyclohexyl-2-[2-(4-methoxy-3′-nitro-biphen-2-yl)-quinolin-6-yl]-1H-benzoimidazole-5-carboxylic acid], the inhibition at 33 µM amounted to 98.3% and the inhibition at 100 µM worked out at 98.3%.
As for `COc1ccc(-c2ccc(C(=O)O)cc2)c(-c2ccc3cc(-c4nc5cc(C(=O)O)ccc5n4C4CCCCC4)ccc3n2)c1` [Compound 421, 2-[2-(4′-carboxy-4-methoxy-biphen-2-yl)-quinolin-6-yl]-1-cyclohexyl-1H-benzoimidazole-5-carboxylic acid], the inhibition at 33 µM was 100% and the inhibition at 100 µM came out at 100%.
Consider `COc1ccc(-c2cccc(Cl)c2)c(-c2ccc3cc(-c4nc5cc(C(=O)O)ccc5n4C4CCCCC4)ccc3n2)c1` [Compound 422, 2-[2-(3′-chloro-4-methoxy-biphen-2-yl)-quinolin-6-yl]-1-cyclohexyl-1H-benzoimidazole-5-carboxylic acid], for which the inhibition at 33 µM worked out at 98.8% and the inhibition at 100 µM amounted to 99.2%.
